# Reference: the NIST ThermoML archive (doi:10.1016/j.fluid.2015.03.040)
# Numbers after ± are expanded uncertainties.
# Test: not given
# Details: 298.15 K, Maximal bubble pressure
row,surface tension liquid-gas [mN/m],SMILES
1,20.3 ± 0.17,CCC(C)(C)OC [2-methoxy-2-methylbutane]
2,28 ± 0.2,CCCCCCCCO [octan-1-ol]
3,71.94 ± 0.41,O [water]
4,16.9 ± 0.16,CC(C)OC(C)C [diisopropyl ether]
5,28 ± 0.21,C1CCOCC1 [tetrahydropyran]
6,17.5 ± 0.16,COC(C)(C)C [2-methoxy-2-methylpropane]
7,19.73 ± 0.17,CCOC(C)(C)C [2-ethoxy-2-methylpropane]
8,24.7 ± 0.2,CCCCCO [pentan-1-ol]
9,27.4 ± 0.21,CCCCCCCO [heptan-1-ol]

# Same assay, conditions: 298.15 K; 101.33 kPa; Liquid; Vibrating tube method
row,mass density [kg/m3],SMILES
1,765.91 ± 0.14,CCC(C)(C)OC [2-methoxy-2-methylbutane]
2,822.25 ± 0.11,CCCCCCCCO [octan-1-ol]
3,996.7 ± 0.04,O [water]
4,718.89 ± 0.15,CC(C)OC(C)C [diisopropyl ether]
5,879.44 ± 0.09,C1CCOCC1 [tetrahydropyran]
6,735.31 ± 0.14,COC(C)(C)C [2-methoxy-2-methylpropane]
7,736.65 ± 0.14,CCOC(C)(C)C [2-ethoxy-2-methylpropane]
8,810.89 ± 0.12,CCCCCO [pentan-1-ol]
9,818.93 ± 0.11,CCCCCCCO [heptan-1-ol]

# Test: not given
# Details: 278.15 K; 101 kPa; Liquid mixture 1; Drop volume
row,interfacial tension [mN/m],SMILES
1,1.49 ± 0.05,CCCCO [butan-1-ol] + O
2,3.96 ± 0.07,CCCCCO [pentan-1-ol] + O
3,6.99 ± 0.08,CCCCCCCCO [octan-1-ol] + O
4,15.2 ± 0.12,CC(C)OC(C)C [diisopropyl ether] + O
5,4.64 ± 0.07,C1CCOCC1 [tetrahydropyran] + O
6,5.77 ± 0.07,CCCCCCO [hexan-1-ol] + O
7,14 ± 0.11,CCOC(C)(C)C [2-ethoxy-2-methylpropane] + O
8,7.8 ± 0.08,COC(C)(C)C [2-methoxy-2-methylpropane] + O
9,6.61 ± 0.08,CCCCCCCO [heptan-1-ol] + O
10,12.2 ± 0.1,CCC(C)(C)OC [2-methoxy-2-methylbutane] + O

# Same assay, conditions: 288.15 K; 101 kPa; Liquid mixture 1; Drop volume
row,interfacial tension [mN/m],SMILES
1,1.63 ± 0.05,CCCCO [butan-1-ol] + O
2,4.24 ± 0.07,CCCCCO [pentan-1-ol] + O
3,7.53 ± 0.08,CCCCCCCCO [octan-1-ol] + O
4,16.3 ± 0.12,CC(C)OC(C)C [diisopropyl ether] + O
5,5.19 ± 0.07,C1CCOCC1 [tetrahydropyran] + O
6,6.06 ± 0.07,CCCCCCO [hexan-1-ol] + O
7,15.5 ± 0.12,CCOC(C)(C)C [2-ethoxy-2-methylpropane] + O
8,8.83 ± 0.09,COC(C)(C)C [2-methoxy-2-methylpropane] + O
9,7.09 ± 0.08,CCCCCCCO [heptan-1-ol] + O
10,13.2 ± 0.11,CCC(C)(C)OC [2-methoxy-2-methylbutane] + O

# Same assay, conditions: 298.15 K; 101 kPa; Liquid mixture 1; Drop volume
row,interfacial tension [mN/m],SMILES
1,1.68 ± 0.05,CCCCO [butan-1-ol] + O
2,4.35 ± 0.07,CCCCCO [pentan-1-ol] + O
3,7.97 ± 0.08,CCCCCCCCO [octan-1-ol] + O
4,17.7 ± 0.13,CC(C)OC(C)C [diisopropyl ether] + O
5,5.78 ± 0.07,C1CCOCC1 [tetrahydropyran] + O
6,6.29 ± 0.08,CCCCCCO [hexan-1-ol] + O
7,16.6 ± 0.12,CCOC(C)(C)C [2-ethoxy-2-methylpropane] + O
8,9.8 ± 0.09,COC(C)(C)C [2-methoxy-2-methylpropane] + O
9,7.4 ± 0.08,CCCCCCCO [heptan-1-ol] + O
10,14.5 ± 0.11,CCC(C)(C)OC [2-methoxy-2-methylbutane] + O

# Same assay, conditions: 308.15 K; 101 kPa; Liquid mixture 1; Drop volume
row,interfacial tension [mN/m],SMILES
1,1.69 ± 0.05,CCCCO [butan-1-ol] + O
2,4.5 ± 0.07,CCCCCO [pentan-1-ol] + O
3,8.41 ± 0.09,CCCCCCCCO [octan-1-ol] + O
4,18.7 ± 0.13,CC(C)OC(C)C [diisopropyl ether] + O
5,6.35 ± 0.08,C1CCOCC1 [tetrahydropyran] + O
6,6.16 ± 0.08,CCCCCCO [hexan-1-ol] + O
7,17.8 ± 0.13,CCOC(C)(C)C [2-ethoxy-2-methylpropane] + O
8,10.8 ± 0.1,COC(C)(C)C [2-methoxy-2-methylpropane] + O
9,7.56 ± 0.08,CCCCCCCO [heptan-1-ol] + O
10,15.5 ± 0.12,CCC(C)(C)OC [2-methoxy-2-methylbutane] + O

# Same assay, conditions: 318.15 K; 101 kPa; Liquid mixture 1; Drop volume
row,interfacial tension [mN/m],SMILES
1,1.63 ± 0.05,CCCCO [butan-1-ol] + O
2,4.51 ± 0.07,CCCCCO [pentan-1-ol] + O
3,8.62 ± 0.09,CCCCCCCCO [octan-1-ol] + O
4,19.7 ± 0.14,CC(C)OC(C)C [diisopropyl ether] + O
5,6.75 ± 0.08,C1CCOCC1 [tetrahydropyran] + O
6,6.18 ± 0.08,CCCCCCO [hexan-1-ol] + O
7,18.7 ± 0.13,CCOC(C)(C)C [2-ethoxy-2-methylpropane] + O
8,11.7 ± 0.1,COC(C)(C)C [2-methoxy-2-methylpropane] + O
9,7.73 ± 0.08,CCCCCCCO [heptan-1-ol] + O
10,16.3 ± 0.12,CCC(C)(C)OC [2-methoxy-2-methylbutane] + O

# Same assay, conditions: 328.15 K; 101 kPa; Liquid mixture 1; Drop volume
row,interfacial tension [mN/m],SMILES
1,1.54 ± 0.05,CCCCO [butan-1-ol] + O
2,4.43 ± 0.07,CCCCCO [pentan-1-ol] + O
3,8.67 ± 0.09,CCCCCCCCO [octan-1-ol] + O
4,21.1 ± 0.15,CC(C)OC(C)C [diisopropyl ether] + O
5,7.28 ± 0.08,C1CCOCC1 [tetrahydropyran] + O
6,6.29 ± 0.08,CCCCCCO [hexan-1-ol] + O
7,19.3 ± 0.14,CCOC(C)(C)C [2-ethoxy-2-methylpropane] + O
8,7.96 ± 0.08,CCCCCCCO [heptan-1-ol] + O
9,17 ± 0.13,CCC(C)(C)OC [2-methoxy-2-methylbutane] + O

# Same assay, conditions: 338.15 K; 101 kPa; Liquid mixture 1; Drop volume
row,interfacial tension [mN/m],SMILES
1,1.39 ± 0.05,CCCCO [butan-1-ol] + O
2,4.37 ± 0.07,CCCCCO [pentan-1-ol] + O
3,8.81 ± 0.09,CCCCCCCCO [octan-1-ol] + O
4,7.45 ± 0.08,C1CCOCC1 [tetrahydropyran] + O
5,6.14 ± 0.08,CCCCCCO [hexan-1-ol] + O
6,7.9 ± 0.08,CCCCCCCO [heptan-1-ol] + O
7,17.5 ± 0.13,CCC(C)(C)OC [2-methoxy-2-methylbutane] + O

# Same assay, conditions: 348.15 K; 101 kPa; Liquid mixture 1; Drop volume
row,interfacial tension [mN/m],SMILES
1,1.2 ± 0.05,CCCCO [butan-1-ol] + O
2,4.21 ± 0.07,CCCCCO [pentan-1-ol] + O
3,6 ± 0.07,CCCCCCO [hexan-1-ol] + O
4,7.82 ± 0.08,CCCCCCCO [heptan-1-ol] + O

# Same assay, conditions: 358.15 K; 101 kPa; Liquid mixture 1; Drop volume
row,interfacial tension [mN/m],SMILES
1,1.04 ± 0.05,CCCCO [butan-1-ol] + O
2,3.94 ± 0.07,CCCCCO [pentan-1-ol] + O
3,7.74 ± 0.08,CCCCCCCO [heptan-1-ol] + O

# Test: refractive index (Na D-line) (dimensionless)
# Details: 298.15 K; 101.33 kPa; Liquid; Standard Abbe refractometry
row,refractive index,SMILES
1,1.38736 ± 0.00032,CCC(C)(C)OC [2-methoxy-2-methylbutane]
2,1.42884 ± 0.00031,CCCCCCCCO [octan-1-ol]
3,1.33374 ± 0.00031,O [water]
4,1.3665 ± 0.00031,CC(C)OC(C)C [diisopropyl ether]
5,1.42004 ± 0.00031,C1CCOCC1 [tetrahydropyran]
6,1.36764 ± 0.00031,COC(C)(C)C [2-methoxy-2-methylpropane]
7,1.37468 ± 0.00031,CCOC(C)(C)C [2-ethoxy-2-methylpropane]
8,1.40941 ± 0.00032,CCCCCO [pentan-1-ol]
9,1.42384 ± 0.00031,CCCCCCCO [heptan-1-ol]
